For 26 molecules, IC50 results are on record in patent US12679843B2, “Pyrrolopyrimidine amines as complement inhibitors” (BioCryst Pharmaceuticals, Inc., priority 2020, dated 2026).

SMILES strings stand for the structures. Bounds are passed on as bounds.

Factor D, sequence (P00746 26-253): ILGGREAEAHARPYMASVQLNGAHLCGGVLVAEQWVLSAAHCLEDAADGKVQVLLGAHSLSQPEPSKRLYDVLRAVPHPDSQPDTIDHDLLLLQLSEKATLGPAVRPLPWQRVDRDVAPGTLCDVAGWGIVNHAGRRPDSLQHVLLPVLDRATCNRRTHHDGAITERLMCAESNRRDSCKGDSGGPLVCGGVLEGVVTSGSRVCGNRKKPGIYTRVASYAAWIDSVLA

This test deals with Factor D (Homo sapiens, UniProt P00746). The test is described as follows: Factor D esterolytic assay (Z-Lys-SBzl thioester substrate, DTNB, 405 nm). The settings on record: substrate Z-Lys-SBzl 1.29 mM, 100 mM HEPES, 500 mM NaCl, pH 7.5, 10% DMSO, tested a minimum of three times. It counts as biochemical. Summed up:
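Human Factor D hydrolysis of Z-Lys-SBzl (1.29 mM) monitored at 405 nm via DTNB thiol detection for 600 s, 690 nm background subtracted. Buffer 100 mM HEPES, 500 mM NaCl, pH 7.5, 10% DMSO; substrate added immediately or after room-temperature preincubation. IC50 from percent inhibition of rate, at least three tests.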
On to `Nc1ncnc2c1c(F)cn2CC(=O)N1C[C@H](F)C[C@H]1C(=O)NCc1cccc(Cl)c1F` [Compound 125d, (2S,4R)-1-(2-(4-amino-5-fluoro-7H-pyrrolo[2,3-d]pyrimidin-7-yl)acetyl)-N-(3-chloro-2-fluorobenzyl)-4-fluoropyrrolidine-2-carboxamide], for which the IC50 lay within 100 to 1000 nM.
The same measure for `Nc1ncnc2c1c1cc(C(F)(F)F)ccc1n2CC(=O)N1[C@@H]2C[C@@H]2C[C@H]1C(=O)Nc1cccc(Br)c1F` [Compound 268b, (1R,3S,5R)-2-(2-(4-amino-6-(trifluoromethyl)-9H-pyrimido[4,5-b]indol-9-yl)acetyl)-N-(3-bromo-2-fluorophenyl)-2-azabicyclo[3.1.0]hexane-3-carboxamide]: < 100 nM; for `Cc1cc(-c2ccncc2)cc2c3c(N)ncnc3n(CC(=O)N3[C@@H]4C[C@@H]4C[C@H]3C(=O)Nc3cccc(Br)n3)c12` [Compound 263c, (1R,3S,5R)-2-(2-(4-amino-8-methyl-6-(pyridin-4-yl)-9H-pyrimido[4,5-b]indol-9-yl)acetyl)-N-(6-bromopyridin-2-yl)-2-azabicyclo[3.1.0]hexane-3-carboxamide]: < 100 nM.
The same measure for `Nc1ncnc2c1c1cc(C(F)(F)F)ccc1n2CC(=O)N1C[C@H](F)C[C@H]1C(=O)Nc1cccc(Br)n1` [Compound 26a, (2S,4R)-1-(2-(4-amino-6-(trifluoromethyl)-9H-pyrimido[4,5-b]indol-9-yl)acetyl)-N-(6-bromopyridin-2-yl)-4-fluoropyrrolidine-2-carboxamide]: < 100 nM.
The same measure for `Cc1cc(C(F)(F)F)cc2c3c(N)ncnc3n(CC(=O)N3[C@H](C(=O)Nc4cccc(Br)n4)C[C@@]4(C)C[C@@H]34)c12` [Compound 184g, (1R,3S,5R)-2-(2-(4-amino-8-methyl-6-(trifluoromethyl)-9H-pyrimido[4,5-b]indol-9-yl)acetyl)-N-(6-bromopyridin-2-yl)-5-methyl-2-azabicyclo[3.1.0]hexane-3-carboxamide]: < 100 nM; for `CCOC(=O)c1cccc2c1c1c(N)ncnc1n2CC(=O)N1[C@@H]2C[C@@H]2C[C@H]1C(=O)Nc1cccc(Br)n1` [Compound 46g, ethyl 4-amino-9-(2-((1R,3S,5R)-3-((6-bromopyridin-2-yl)carbamoyl)-2-azabicyclo[3.1.0]hexan-2-yl)-2-oxoethyl)-9H-pyrimido[4,5-b]indole-5-carboxylate]: 100 to 1000 nM; for `Nc1ncnc2c1c1cc(C(=O)O)ccc1n2CC(=O)N1[C@@H]2C[C@@H]2C[C@H]1C(=O)Nc1cccc(Br)n1` [Compound 44a, 4-amino-9-(2-((1R,3S,5R)-3-((6-bromopyridin-2-yl)carbamoyl)-2-azabicyclo[3.1.0]hexan-2-yl)-2-oxoethyl)-9H-pyrimido[4,5-b]indole-6-carboxylic acid]: < 100 nM.
For `Cc1ccc2c(c1)c1c(N)ncnc1n2CC(=O)N1[C@H](C(=O)Nc2nc(Br)ccc2C)C[C@@]2(C)C[C@@H]12` [Compound 10b, (1R,3S,5R)-2-(2-(4-amino-6-methyl-9H-pyrimido[4,5-b]indol-9-yl)acetyl)-N-(6-bromo-3-methylpyridin-2-yl)-5-methyl-2-azabicyclo[3.1.0]hexane-3-carboxamide], the IC50 was < 100 nM.
On to `N#Cc1ccc(CNC(=O)[C@@H]2CCCN2C(=O)Cn2c3ccccc3c3c(N)ncnc32)cc1` [Compound 250b, (S)-1-(2-(4-amino-9H-pyrimido[4,5-b]indol-9-yl)acetyl)-N-(4-cyanobenzyl)pyrrolidine-2-carboxamide], for which the IC50 is > 1000 nM.
The same measure for `Cc1cc(C(F)(F)F)cc2c3c(N)ncnc3n(CC(=O)N3[C@@H]4C[C@@H]4C[C@H]3C(=O)Nc3cncc(Br)n3)c12` [Compound 295a, (1R,3S,5R)-2-(2-(4-amino-8-methyl-6-(trifluoromethyl)-9H-pyrimido[4,5-b]indol-9-yl)acetyl)-N-(6-bromopyrazin-2-yl)-2-azabicyclo[3.1.0]hexane-3-carboxamide]: < 100 nM; for `Nc1ncnn2c(CC(=O)N3C[C@H](F)C[C@H]3C(=O)NCc3cccc(Cl)c3F)ccc12` [Compound 65a, (2S,4R)-1-(2-(4-aminopyrrolo[2,1-f][1,2,4]triazin-7-yl)acetyl)-N-(3-chloro-2-fluorobenzyl)-4-fluoropyrrolidine-2-carboxamide]: < 100 nM; for `COC(=O)c1cccc2c1c1c(N)ncnc1n2CC(=O)N1[C@H](C(=O)Nc2cccc(Br)n2)C[C@@]2(C)C[C@@H]12` [Compound 221c, methyl 4-amino-9-(2-((1R,3S,5R)-3-((6-bromopyridin-2-yl)carbamoyl)-5-methyl-2-azabicyclo[3.1.0]hexan-2-yl)-2-oxoethyl)-9H-pyrimido[4,5-b]indole-5-carboxylate]: < 100 nM.
The same measure for `COc1cc(Br)nc(NC(=O)[C@@H]2C[C@H]3C[C@H]3N2C(=O)Cn2c3ncnc(N)c3c3cc(C(F)(F)F)cc(C)c32)c1` [Compound 344c, (1R,3S,5R)-2-(2-(4-amino-8-methyl-6-(trifluoromethyl)-9H-pyrimido[4,5-b]indol-9-yl)acetyl)-N-(6-bromo-4-methoxypyridin-2-yl)-2-azabicyclo[3.1.0]hexane-3-carboxamide]: < 100 nM.
The same measure for `Nc1ncnc2c1ncn2CC(=O)N1CCC[C@H]1C(=O)NCc1cccc(Cl)c1F` [Compound 119a, (S)-1-(2-(6-amino-9H-purin-9-yl)acetyl)-N-(3-chloro-2-fluorobenzyl)pyrrolidine-2-carboxamide]: 100 to 1000 nM; for `Nc1ncnc2c1ncn2CC(=O)N1[C@@H]2C[C@@H]2C[C@H]1C(=O)NCc1ccccc1` [Compound 101b, (1R,3S,5R)-2-(2-(6-amino-9H-purin-9-yl)acetyl)-N-benzyl-2-azabicyclo[3.1.0]hexane-3-carboxamide]: 100 to 1000 nM.
`Nc1ccnc2c1ccn2CC(=O)N1[C@@H]2C[C@@H]2C[C@H]1C(=O)Nc1cccc(Br)n1` [Compound 83d, (1R,3S,5R)-2-(2-(4-amino-1H-pyrrolo[2,3-b]pyridin-1-yl)acetyl)-N-(6-bromopyridin-2-yl)-2-azabicyclo[3.1.0]hexane-3-carboxamide]: the 50% inhibitory concentration (IC50) was in the range of 100 to 1000 nM.
The same measure for `Nc1ncnc2c1ncn2CC(=O)N1[C@@H]2CC[C@@H](C2)[C@H]1C(=O)NCc1cccc(Cl)c1F` [Compound 124b, (1R,3S,4S)-2-(2-(6-amino-9H-purin-9-yl)acetyl)-N-(3-chloro-2-fluorobenzyl)-2-azabicyclo[2.2.1]heptane-3-carboxamide]: > 1000 nM; for `C[C@@]12C[C@@H](C(=O)Nc3cccc(Br)n3)N(C(=O)Cn3c4ccccc4c4c(N)ncnc43)[C@@H]1C2` [Compound 9a, (1R,3S,5R)-2-(2-(4-amino-9H-pyrimido[4,5-b]indol-9-yl)acetyl)-N-(6-bromopyridin-2-yl)-5-methyl-2-azabicyclo[3.1.0]hexane-3-carboxamide]: < 100 nM.
The same measure for `CN(C)c1ccc2c(c1)c1c(N)ncnc1n2CC(=O)N1[C@@H]2C[C@@H]2C[C@H]1C(=O)Nc1cccc(Br)n1` [Compound 262a, (1R,3S,5R)-2-(2-(4-amino-6-(dimethylamino)-9H-pyrimido[4,5-b]indol-9-yl)acetyl)-N-(6-bromopyridin-2-yl)-2-azabicyclo[3.1.0]hexane-3-carboxamide]: < 100 nM; for `CC(C)(C)CCNC(=O)[C@@H]1C[C@H]2C[C@H]2N1C(=O)Cn1cnc2c(N)ncnc21` [Compound 95c, (1R,3S,5R)-2-(2-(6-amino-9H-purin-9-yl)acetyl)-N-(3,3-dimethylbutyl)-2-azabicyclo[3.1.0]hexane-3-carboxamide]: > 1000 nM; for `Cc1cccc2c3c(N)ncnc3n(CC(=O)N3[C@@H]4C[C@@H]4C[C@H]3C(=O)Nc3cccc(Br)n3)c12` [Compound 30f, (1R,3S,5R)-2-(2-(4-amino-8-methyl-9H-pyrimido[4,5-b]indol-9-yl)acetyl)-N-(6-bromopyridin-2-yl)-2-azabicyclo[3.1.0]hexane-3-carboxamide]: < 100 nM.
The same measure for `Cc1ccc2c(c1)c1c(N)ncnc1n2C(C)C(=O)N1[C@@H]2C[C@@H]2C[C@H]1C(=O)Nc1cccc(Br)n1` (single isomer, unassigned) [Compound 22d]: > 1000 nM; for `Nc1ncnc2c1c1cc(Br)c(F)cc1n2CC(=O)N1[C@@H]2C[C@@H]2C[C@H]1C(=O)Nc1cccc(Br)n1` [Compound 389g, (1R,3S,5R)-2-(2-(4-amino-6-bromo-7-fluoro-9H-pyrimido[4,5-b]indol-9-yl)acetyl)-N-(6-bromopyridin-2-yl)-2-azabicyclo[3.1.0]hexane-3-carboxamide]: < 100 nM; for `C[C@@H]1C[C@@H](C(=O)NCc2cccc(Cl)c2F)N(C(=O)Cn2cnc3c(N)ncnc32)C1` [Compound 121d, (2S,4R)-1-(2-(6-amino-9H-purin-9-yl)acetyl)-N-(3-chloro-2-fluorobenzyl)-4-methylpyrrolidine-2-carboxamide]: > 1000 nM.
Regarding `Cc1cc(C)c2c(c1)c1c(N)ncnc1n2CC(=O)N1[C@H](C(=O)Nc2cncc(Br)n2)C[C@@]2(C)C[C@@H]12` [Compound 314a, (1R,3S,5R)-2-(2-(4-amino-6,8-dimethyl-9H-pyrimido[4,5-b]indol-9-yl)acetyl)-N-(6-bromopyrazin-2-yl)-5-methyl-2-azabicyclo[3.1.0]hexane-3-carboxamide], the IC50 is < 100 nM.
The same measure for `Cc1cc(-c2ccccn2)cc2c3c(N)ncnc3n(CC(=O)N3[C@H](C(=O)Nc4cccc(Br)n4)C[C@@]4(C)C[C@@H]34)c12` [Compound 378c, (1R,3S,5R)-2-(2-(4-amino-8-methyl-6-(pyridin-2-yl)-9H-pyrimido[4,5-b]indol-9-yl)acetyl)-N-(6-bromopyridin-2-yl)-5-methyl-2-azabicyclo[3.1.0]hexane-3-carboxamide]: < 100 nM.

The IC50 is the concentration needed to halve the response being measured.
